Literature values in patent US20150252306A1, “COMPOSITIONS COMPRISING A PUNGENT AGENT” (The Procter & Gamble Company, priority 2014, published 2015).

Settings: Scoville heat units, given for comparison

## COc1cc(CNC(=O)CCCC/C=C/C(C)C)ccc1O [capsaicin]
  pungency level: about 16 000 000 SHU
